For 30 compounds, EPO fold induction and fold induction results are on record in patent EP2385948B1, “FUSED THIAZOLO AND OXAZOLO PYRIMIDINONES” (Torrent Pharmaceuticals Limited, priority 2009, dated 2011).

The subject of the first data set is erythropoietin. In words: In vitro erythropoietin induction (ELISA of cell culture supernatant). The conditions noted are these: Hep3B cell line, 50 uM, 16 hours, relative to vehicle control. On the technique in general: An ELISA detects its analyte on a solid surface through an enzyme-linked reagent.
Procedure: Hep3B cell line (ATCC HB8064) was employed. Induction of erythropoietin was carried out for the indicated dose of compounds for 16 hours duration. At the end of 16 hours, cell culture medium was collected and centrifuged to remove any debris. Supernatant obtained was analyzed for erythropoietin by ELISA (R&D systems, USA). The results were expressed as fold induction as compared to vehicle control.
For `O=C(O)CNC(=O)c1c(O)nc2sc3c(n2c1=O)CCCC3` [Compound 1, [(2-Hydroxy-4-oxo-5,6,7,8-tetrahydro-4H-9-thia-1,4a-diaza-fluorene-3-carbonyl)-amino]-acetic acid], the EPO fold induction entry was “+++ (+++ indicates 5-8 fold)”.
Consider `O=C([O-])CNC(=O)c1c(O)nc2sc3c(n2c1=O)CCCC3.[Na+]`, for which the EPO fold induction entry was “++ (++ indicates 2-4 fold)”.

Staying with this data set, now noted: Hep3B cell line, 200 uM, 16 hours, relative to vehicle control.
Take “{[7-(3,5-Dimethoxy-benzoyl)-2-hydroxy-4-oxo-5,6,7,8-tetrahydro-4H-9-thia-1,4a,7-triaza-fluorene-3-carbonyl]-amino}-acetic acid [Compound 41]”: the EPO fold induction entry is “++ (++ indicates 2-4 fold)”.

Staying with this data set, now noted: Homo sapiens, Hep3B, 16 h, read-out: EPO fold induction, Hep3B cell line, 12.5 uM, 16 hours, relative to vehicle control.
In the case of `N#Cc1cccnc1N1CCc2c(sc3nc(O)c(C(=O)NCC(=O)O)c(=O)n23)C1` [Compound 36, {[7-(3-Cyano-pyridin-2-yl)-2-hydroxy-4-oxo-5,6,7,8-tetrahydro-4H-9-thia-1,4a,7-triaza-fluorene-3-carbonyl]-amino}-acetic acid], the fold induction at 12.5 µM was below 2.

The data set is the same for the next values; noted with them: Homo sapiens, Hep3B, 16 h, read-out: EPO fold induction, Hep3B cell line, 50 uM, 16 hours, relative to vehicle control.
For the compound `O=C(O)CNC(=O)c1c(O)nc2sc3c(n2c1=O)CCN(Cc1cc(C(F)(F)F)cc(C(F)(F)F)c1)C3` [Compound 46, {[7-(3,5-Bis-trifluoromethyl-benzyl)-2-hydroxy-4-oxo-5,6,7,8-tetrahydro-4H-9-thia-1,4a,7-triaza-fluorene-3-carbonyl]-amino}-acetic acid], the fold induction at 50 µM was in the range of 2 to 4.

The data set is the same for the next values; noted with them: Homo sapiens, Hep3B, 16 h, read-out: EPO fold induction, Hep3B cell line, 200 uM, 16 hours, relative to vehicle control.
For `CCCC1CCc2c(sc3nc(O)c(C(=O)NCC(=O)O)c(=O)n23)C1` (stereo not drawn) [Compound 59, [(2-Hydroxy-4-oxo-7-propyl-5,6,7,8-tetrahydro-4H-9-thia-1,4a-diaza-fluorene-3-carbonyl)-amino]-acetic acid], the fold induction at 200 µM was below 2.
The same measure, in the same setting: for `CCOC(=O)N1CCc2c(sc3nc(O)c(C(=O)NCC(=O)O)c(=O)n23)C1` [Compound 2, 3-(Carboxymethyl-carbamoyl)-2-hydroxy-4-oxo-5,8-dihydro-4H,6H-9-thia-1,4a,7-triaza-fluorene-7-carboxylic acid ethyl ester] the value was 5 to 8.
The same measure, in the same setting: the figure for `C[C@@H](NC(=O)c1c(O)nc2sc3c(n2c1=O)CCC(C)(C)C3)C(=O)O` [Compound 44, 2-[(2-Hydroxy-7,7-dimethyl-4-oxo-5,6,7,8-tetrahydro-4H-9-thia-1,4a-diaza-fluorene-3-carbonyl)-amino]-propionic acid (D-isomer)] is below 2.
For the compound `CC1CCc2c(sc3nc(O)c(C(=O)NCC(=O)O)c(=O)n23)C1` (stereo not drawn) [Compound 58, [(2-Hydroxy-7-methyl-4-oxo-5,6,7,8-tetrahydro-4H-9-thia-1,4a-diaza-fluorene-3-carbonyl)-amino]-acetic acid], the fold induction at 200 µM lay within 5 to 8.
Still for that read-out and setting: the figure for `COc1ccc(CN2CCc3c(sc4nc(O)c(C(=O)NCC(=O)O)c(=O)n34)C2)cc1` [Compound 31, {[2-Hydroxy-7-(4-methoxy-benzyl)-4-oxo-5,6,7,8-tetrahydro-4H-9-thia-1,4a,7-triaza-fluorene-3-carbonyl]-amino}-acetic acid] is 5 to 8.
Take `O=C(O)CNC(=O)c1c(O)nc2sc3c(n2c1=O)CCC(C(=O)O)C3` (stereo not drawn) [Compound 72, 3-(Carboxymethyl-carbamoyl)-2-hydroxy-4-oxo-5,6,7,8-tetrahydro-4H-9-thia-1,4a-diaza-fluorene-7-carboxylic acid]: the fold induction at 200 µM was below 2.
As for `O=C(O)CNC(=O)c1c(O)nc2sc3c(n2c1=O)CCN(C(=O)Nc1ccccc1)C3` [Compound 8, [(2-Hydroxy-4-oxo-7-phenylcarbamoyl-5,6,7,8-tetrahydro-4H-9-thia-1,4a,7-triaza-fluorene-3-carbonyl)-amino]-acetic acid], the fold induction at 200 µM lay within 2 to 4.
Consider `O=C(O)CNC(=O)c1c(O)nc2sc3c(n2c1=O)CCN(C(=O)OCc1ccccc1)C3` [Compound 26, 3-(Carboxymethyl-carbamoyl)-2-hydroxy-4-oxo-5,8-dihydro-4H,6H-9-thia-1,4a,7-triaza-fluorene-7-carboxylic acid benzyl ester], for which the fold induction at 200 µM was 9 to 16.
The same measure, in the same setting: the figure for `O=C(O)CNC(=O)c1c(O)nc2sc3c(n2c1=O)CCN(C(=O)C1CC1)C3` [Compound 9, [(7-Cyclopropanecarbonyl-2-hydroxy-4-oxo-5,6,7,8-tetrahydro-4H-9-thia-1,4a,7-triaza-fluorene-3-carbonyl)-amino]-acetic acid] is 5 to 8; for `CC(C)[C@H](NC(=O)c1c(O)nc2sc3c(n2c1=O)CCC(C)(C)C3)C(=O)O` [Compound 43, 2-[(2-Hydroxy-7,7-dimethyl-4-oxo-5,6,7,8-tetrahydro-4H-9-thia-1,4a-diaza-fluorene-3-carbonyl)-amino]-3-methyl-butyric acid (L-isomer)] it is below 2.
Still for that read-out and setting: for `O=C(O)CNC(=O)c1c(O)nc2sc3c(n2c1=O)CCCCCC3` [Compound 38, [(2-Hydroxy-4-oxo-5,6,7,8,9,10-hexahydro-4H-11-thia-1,4a-diaza-cycloocta[a]indene-3-carbonyl)-amino]-acetic acid] the value was 9 to 16; for `O=C(O)CNC(=O)c1c(O)nc2sc3c(n2c1=O)CCS(=O)(=O)C3` [Compound 67, [(2-Hydroxy-4,7,7-trioxo-5,6,7,8-tetrahydro-4H-71ambda*6*,9-dithia-1,4a-diaza-fluorene-3-carbonyl)-amino]-acetic acid], 2 to 4; for `O=C(O)CNC(=O)c1c(O)nc2sc3c(n2c1=O)CCN(c1ccc(C(F)(F)F)cn1)C3` [Compound 18, {[2-Hydroxy-4-oxo-7-(5-trifluoromethyl-pyridin-2-yl)-5,6,7,8-tetrahydro-4H-9-thia-1,4a,7-triaza-fluorene-3-carbonyl]-amino}-acetic acid], 9 to 16.
Still for that read-out and setting: for `CC(C)CC(=O)N1CCc2c(sc3nc(O)c(C(=O)NCC(=O)O)c(=O)n23)C1` [Compound 4, {[2-Hydroxy-7-(3-methyl-butyryl)-4-oxo-5,6,7,8-tetrahydro-4H-9-thia-1,4a,7-triaza-fluorene-3-carbonyl]-amino}-acetic acid] the value was 2 to 4; for `CC1(C)CCc2sc3nc(O)c(C(=O)NCC(=O)O)c(=O)n3c2C1` [Compound 60, [(2-Hydroxy-6,6-dimethyl-4-oxo-5,6,7,8-tetrahydro-4H-9-thia-1,4a-diaza-ftuorene-3-carbonyl)-amino]-acetic acid], 5 to 8.
As to `O=C(O)CNC(=O)c1c(O)nc2sc3c(n2c1=O)CCN(Cc1ccc2c(c1)CCC2)C3` [Compound 39, [(2-Hydroxy-7-indan-5-ylmethyl-4-oxo-5,6,7,8-tetrahydro-4H-9-thia-1,4a,7-triaza-fluorene-3-carbonyl)-amino]-acetic acid], the fold induction at 200 µM lay in the range of 2 to 4.
Regarding `O=C(O)CNC(=O)c1c(O)nc2oc3c(n2c1=O)CCCC3` [Compound 57, [(2-Hydroxy-4-oxo-5,6,7,8-tetrahydro-4H-9-oxa-1,4a-diaza-fluorene-3-carbonyl)-amino]-acetic acid], the fold induction at 200 µM is below 2.
For `O=C(O)CNC(=O)c1c(O)nc2sc3c(n2c1=O)CCN(C(=O)c1ccc(OC(F)(F)F)cc1)C3` [Compound 22, {[2-Hydroxy-4-oxo-7-(4-trifluoromethoxy-benzoyl)-5,6,7,8-tetrahydro-4H-9-thia-1,4a,7-triaza-fluorene-3-carbonyl]-amino}-acetic acid], the fold induction at 200 µM lay in the range of 5 to 8.
Turning to `O=C(O)CNC(=O)c1c(O)nc2sc3c(n2c1=O)CCN(S(=O)(=O)c1ccc(Cl)s1)C3` [Compound 17, {[7-(5-Chloro-thiophene-2-sulfonyl)-2-hydroxy-4-oxo-5,6,7,8-tetrahydro-4H-9-thia-1,4a,7-triaza-fluorene-3-carbonyl]-amino}-acetic acid], the fold induction at 200 µM lay in the range of 2 to 4.
Still for that read-out and setting: the figure for `CC(C)(C)C(=O)N1CCc2c(sc3nc(O)c(C(=O)NCC(=O)O)c(=O)n23)C1` [Compound 20, {[7-(2,2-Dimethyl-propionyl)-2-hydroxy-4-oxo-5,6,7,8-tetrahydro-4H-9-thia-1,4a,7-triaza-fluorene-3-carbonyl]-amino}-acetic acid] is 5 to 8; for `O=C(O)CNC(=O)c1c(O)nc2sc3c(n2c1=O)CCN(C(=S)Nc1ccc(F)cc1)C3` [Compound 24, {[7-(4-Fluoro-phenylthiocarbamoyl)-2-hydroxy-4-oxo-5,6,7,8-tetrahydro-4H-9-thia-1,4a,7-triaza-fluorene-3-carbonyl]-amino}-acetic acid] it is 5 to 8; for `O=C(O)CNC(=O)c1c(O)nc2sc3c(n2c1=O)CCN(C(=O)c1ccc(Cl)nc1)C3` [Compound 33, {[7-(6-Chloro-pyridine-3-carbonyl)-2-hydroxy-4-oxo-5,6,7,8-tetrahydro-4H-9-thia-1,4a,7-triaza-fluorene-3-carbonyl]-amino}-acetic acid] it is 2 to 4.
For `O=C(O)CNC(=O)c1c(O)nc2sc3c(n2c1=O)CCC3` [Compound 11, [(2-Hydroxy-4-oxo-7,8-dihydro-4H,6H-cyclopenta[4,5]thiazolo[3,2-a]pyrimidine-3-carbonyl)-amino]-acetic acid], the fold induction at 200 µM is 5 to 8.
The same measure, in the same setting: for `Cc1ccc(S(=O)(=O)N2CCc3c(sc4nc(O)c(C(=O)NCC(=O)O)c(=O)n34)C2)cc1` [Compound 7, {[2-Hydroxy-4-oxo-7-(toluene-4-sulfonyl)-5,6,7,8-tetrahydro-4H-9-thia-1,4a,7-triaza-fluorene-3-carbonyl]-amino}-acetic acid] the value was 2 to 4; for `O=C(O)CNC(=O)c1c(O)nc2sc3c(n2c1=O)CCN(C(=O)CC1CCCC1)C3` [Compound 29, {[7-(2-Cyclopentyl-acetyl)-2-hydroxy-4-oxo-5,6,7,8-tetrahydro-4H-9-thia-1,4a,7-triaza-fluorene-3-carbonyl]-amino}-acetic acid], 9 to 16.
